Results on 6 compounds are retold here after patent US20070196288A1, “Method of treating periodontitis and of reducing dentinal sensitivity” (Research Foundation of the State University of New York, priority 2006, published 2007).

Data set [1] in a line: Dissolution of gadolinium materials. It counts as physicochemical.
In data set [2] the test system is cell surface-extracted proteases from P. Gingivalis. The experiment in a line: BAPNA hydrolysis by cell surface-extracted proteins. It counts as biochemical, P. Gingivalis 381. The settings on record: for inhibitory effect on cell surface-extracts (BAPNA hydrolysis): FIG. 2, inhibitor 0.4-2.4 mM tested, 2.4 mM stated for gadolinium nitrate, 5% 2-mercaptoethanol, 37° C., 1 hour; for OD at A405 (p-nitroaniline released): inhibitor concentration 2.4 mM. The protocol: (§1) All steps in the isolation of P. Gingivalis proteins were carried out at 4° C. […] The cells and culture media were separated by centrifugation at 10,000×g for 10 minutes in a Sorvall centrifuge.
P. Gingivalis cells collected after centrifugation were washed three times with 50 millimolar (“mM”) HEPES buffer, pH 7.0. The washed cells were stirred with 1% Triton X-100 (Fisher Scientific) dissolved in HEPES (Fisher Scientific) at 4° C. for 15 minutes to solubilize cell surface proteins. The cells were centrifuged at 10,000×g in a Sorvall centrifuge for 10 minutes, and the supernatant was collected. [Sojar, H. T., Lee, J. Y., Bedi, G. S. et al., “Purification and Characterization of a Protease from Porphyromonas Gingivalis Capable of Degrading Salt-Solubilized Collagen”, 61 Infect. Immun. […] The amount of protein was estimated using a Spectrophotometer ND-1000 by absorbance at 280 nm.
(§2) Activity of cell surface-extracted and culture-precipitated proteases was assayed by using the synthetic chromogenic substrate benzoyl-L-Arg-p-nitroanilide (BAPNA). [Erlanger, B. F., Kokowsky, N. & Cohen, W., “The Preparation and Properties of Two New Chromogenic Substrates of Trypsin”, 95 Arch. […] Colorimetric values measured as absorbance were obtained using Spectronic 2000 Methodology for culture media-precipitated proteins.
The reaction mixture consisted of 100 μl of 100 mM substrate in 50 mM HEPES buffer, pH 7, 50 μl of an approximately 1 mg/ml of proteins was used to test chromogenic activity of the substrate. With 5% of 2-mercaptoethanol as reducing agent, the volume was made to 500 μl. Various volumes of the inhibitor 0.4 mM; 0.8 mM; 1.2 mM; 1.6 mM; 2.0 mM; 2.4 mM were used.
(§3) After incubation at 37° C. for 1 hour, 100 μl of 5 N acetic acid was added to stop the reaction in both experimental samples. The total volume was made to 1 ml by addition of water. The p-nitroaniline released was determined by measuring A405.

In data set [3] the test system is cell culture media-precipitated proteases from P. Gingivalis. Put plainly: BAPNA hydrolysis by culture media-precipitated proteins. It counts as biochemical, P. Gingivalis 381. The settings on record: FIG. 1; inhibitor 2-10 mM tested, 10 mM stated for gadolinium nitrate; 5% 2-mercaptoethanol, 37° C., 1 hour. As to the method:
as §1
To the cell-separated culture supernatant, ammonium sulfate was added to achieve 80% saturation in a volume of 400 ml. After 4 hours, the precipitate was collected by centrifugation at 11,000×g for 45 minutes. It was then dissolved in HEPES and dialyzed against 4 liters of HEPES buffer. The precipitate formed on dialysis was removed by centrifugation at 10,000×g for 30 minutes, the supernatant was collected, and the precipitated material was discarded. Extracted proteins was analyzed for protein content using a Spectrophotometer ND-1000.
as §2
The reaction mixture consisted of 50 μl of 100 mM substrate in 50 mM HEPES buffer, pH 7, and 25 μl of the sample protease containing 2 mg/ml of protein was used to test chromogenic activity of the substrate. With 5% of 2-mercaptoethanol as reducing agent, volume was made to 250 μl. Various concentrations of the inhibitor 2 mM; 4 mM; 6 mM; 8 mM; 10 mM were used.
as §3

Data set [4] is described as follows: pH of the applied solution. The settings on record: pH of the solution or product as applied to dentine. It counts as physicochemical.
Data set [5] relates to P. Gingivalis proteins extracted from cell surface and precipitated from cell culture media (gelatin-cleaving / collagenolytic activity). Put plainly: Gelatin zymography. In kind it is biochemical, P. Gingivalis 381. The following applies: inhibitor 5 mM in development buffer, 37° C. overnight; both protein preparations (FIGS. 3 and 4). From the text: Since P. Gingivalis proteases cleave gelatin effectively, the gelatin-cleaving activity of the extracted proteins was checked by zymography, as described by Heussen and Dowdle using 10% Zymogen (Gelatin) Gel 1.0 mm×10 well (Invitrogen Corporation). [Heussen, C. & Dowdle, E. B., “Electrophoretic Analysis of Plasminogen Activators in Polyacrylamide Gels Containing Sodium Dodecyl Sulfate and Copolymerized Substrates”, 102 Anal. Biochem. 196-202 (1980).]
The extracted proteins, with the reducing sample buffer containing 5% mercaptoethanol, was electrophoresed. After electrophoresis, the gel was washed in 50 mM HEPES, pH 7.0, containing 2% Triton X-100 for 30 minutes, and rinsed twice with the same buffer without Triton X-100. The gel was then cut into 3 parts before transferring to a development buffer containing 50 mM HEPES, 5% 2-mercaptoethanol, buffered at pH 7.0. One part was incubated with developing buffer whereas the other two parts were incubated in the presence of inhibitor with varying concentrations of 5 mM and 10 mM. The gel was incubated at 37° C. overnight on a rocker. The incubated gel was then fixed with 50% methanol and 12% acetic acid for 30 minutes, and stained with 0.1% Coomassie blue in 50% methanol and 12% acetic acid to visualize lytic bands.

`O=C([O-])C(=O)[O-].O=C([O-])C(=O)[O-].O=C([O-])C(=O)[O-].[Gd+3].[Gd+3]` [Gadolinium oxalate]: the “conditions required for dissolution” value in data set [1] is “required very acidic conditions for dissolution”.
For the compound `O.O.O.O.O.O.O.[Ce+3].[Cl-].[Cl-].[Cl-]` [cerium chloride, cerium chloride heptahydrate (CeCl3.7H2O)], in data set [2], the “inhibitory effect on cell surface-extracts (BAPNA hydrolysis)” value (from here on “inhibitory effect”) is listed as ~32% and the “OD at A405 (p-nitroaniline released)” value is ~0.66. In addition, the “inhibition of protease activity (BAPNA hydrolysis), cell culture-precipitated proteins” value in data set [3] is reported as ~11%.
The corresponding values for `O.O.O.O.O.O.[Cl-].[Cl-].[Cl-].[Gd+3]` [gadolinium chloride, gadolinium chloride hexahydrate (GdCl3.6H2O)] are ~54%, ~0.45 and ~70%.
On to `O.O.O.O.O.O.O=[N+]([O-])[O-].O=[N+]([O-])[O-].O=[N+]([O-])[O-].[Gd+3]` [gadolinium nitrate, gadolinium nitrate hexahydrate, (Gd(NO3)3.6H2O)], for which, in data set [2], the “inhibitory effect” value is ~56% and the “OD at A405 (p-nitroaniline released)” value is listed as ~0.43. Moreover, the pH in data set [4] is listed as 4.3. Moreover, the pH result in data set [4] (listed as Gadolinium nitrate) was “about 4.3”. Further, the “effect on gelatin-cleaving / collagenolytic activity on zymogram” value in data set [5] is on record as “inhibited the collagenolytic activity”.
As to `[Gd]` [gadolinium], in data set [5], the “effect on gelatin-cleaving / collagenolytic activity on zymogram” value is “negative staining bands were absent”.
Turning to `O.O.O.O.O.O.[Cl][Sm]([Cl])[Cl]` [samarium chloride, samarium chloride hexahydrate, (SmCl3.6H2O)], in data set [2], the “inhibitory effect” value is given as ~59% and the “OD at A405 (p-nitroaniline released)” value is reported as ~0.39. Also, the “inhibition of protease activity (BAPNA hydrolysis), cell culture-precipitated proteins” value in data set [3] is ~75%.
